This is an account of results in patent US6617326B2 (dated 2003).

Turning to `CC(C)(F)c1cnn2c(-c3ccc(F)c(-c4ccc(F)cc4C#N)c3)cnc2n1`, the melting point was in the range of 156 to 159 °C.
The result for `N#Cc1ccc(F)cc1-c1cc(-c2cnc3nc(C(F)(F)F)cnn23)ccc1F` reads 200 to 201 °C; that for `CC(C)(O)c1cnn2c(-c3ccc(F)c(-c4ccc(F)cc4C#N)c3)cnc2n1`, 215 °C; that for `CC(C)(O)c1cnn2c(-c3cccc(-c4ccc(F)cc4C#N)c3)cnc2n1`, 175 °C.

One may read the melting point as the temperature of the solid-liquid transition.
